Laboratory results as given in patent US11091460B2, “Syk inhibitor and use method therefor” (CHIA TAI TIANQING PHARMACEUTICAL GROUP CO., LTD., priority 2017, dated 2021).
Read-outs that look alike come from different tables or passages of the source.

Experiments:
SYK kinase = biological target: T1, SYK kinase (Homo sapiens, UniProt P43405); assay: In vitro test of the inhibition effect on SYK kinase (HTRF); type: biochemical; details: tyrosine kinase 0.0156 ng/μL, substrate 0.2 uM, ATP 2 uM, 23° C. 1 hour, read-out: Inhibit SYK kinase IC50
T1 construct: purchased Invitrogen PV3857
Method: Experimental Example 1: In Vitro Test of the Inhibition Effect of the Example Compounds on SYK Kinase
Adenosine triphosphate concentration was controlled at 2 uM. • 4) Loaded with a Multidrop automatic dispenser, and a mixture of tyrosinase solution and tyrosine kinase-substrate-biotin/adenosine triphosphate was added in an amount of 5 ul per well, and incubated at 23° C. for 1 hour. • c) Detection phase: • 1) Added 13.33 mL of ethylenediaminetetraacetic acid solution to the Detection Buffer in the kit, added the specified amount of […] (Eu)-labeled antibody and streptavidin XL-665, and prepared the detection solution. • 2) Loaded with a Multidrop automatic dispenser, and 10 uL of the detection solution per well, incubated at 23° C. for 1 hour. It terminated the reaction of the enzyme and substrate mixture. • 3) Reading after centrifugation on a multi-function microplate reader, • d) Data Analysis: Analyzed the data with XL-Fit, and calculated the IC50 value of the compound.

AKT phosphorylation = assay: In vitro test of the inhibition effect on AKT phosphorylation (ELISA, Ramos cells); type: cell-based; details: Homo sapiens, Ramos
Method: Experimental Example 2: In Vitro Test of the Inhibition Effect of the Example Compounds on AKT Phosphorylation
• 2.1 Experimental Purpose: Intracellular protein kinase AKT phosphorylation detected by experiment was measured by enzyme-linked immunosorbent assay (ELISA), and the inhibition of the compound on protein kinase AKT phosphorylation was evaluated by an index of the half-cell inhibition concentration (IC50) value of the compound. • 2.2 Experimental Materials: • Cell line: Ramos cell line • Cell culture medium (RPMI1640, Invitrogen #22400-105; 10% serum Gibco #10099-141; L-glutamine 1×, Gibco #25030-081) • Experimental medium (without serum, RPM11640, Invitrogen #22400-105; L-glutamine 1×, Gibco #25030) • Lysis buffer (trishydroxymethylaminomethane hydrochloride, Invitrogen15567-1000 ml; sodium chloride, domestic; sodium deoxycholate, Sigma30970-25 G; polyethylene glycol octylphenyl ether, SigmaT9284-100 ml; dodecane sodium sulfonate, SigmaL3771; ethylenediaminetetraacetic acid, Invitrogen15575-038-100 ml; ultrapure water, MilliQ) • Protease inhibitor (Roche, 4693159001-30/BOX) • Phosphatase inhibitor mixture 2 (Sigma, P5726-5 ML) • Phosphatase inhibitor mixture 3 (Sigma, P0044-5 ML) • Goat Anti-Human immunoglobulin M (F(ab′)2 Goat Anti-Human IgM) (Jackson Immuno Research-109-006-129) • Phosphorylated AKT assay kit (Phospho-AKT 1/2/3 (ser473)) (TGR Bioscience, EKT002) • 10× Hank's balanced salt solution (Gibco #14065-056) • 96-well cell plate (Greiner #655090) • Compound V-well dilution plate (Axygen #WITP02280) • CO2 incubator (Thermo #371) • Centrifuge (Eppendorf #581 OR) • Vi-cell cell counter (Beckman Coulter) • Pipette (Eppendorf) • Pipette (Greiner) • Pipetting gun (Eppendorf) • Multi-purpose microplate reader (Envision Reader) • 2.3 Experimental procedures and methods: • a) Cell Seeding (Ramos Cells) • 1) The medium was preheated in a 37° C. water bath. Suspended cells and their culture solution were aspirated, centrifuged at 1000 rpm for 5 minutes. • 2) Aspirated the cell culture medium, added 10 mL of pre-warmed medium to the centrifuge tube, blew off the resuspended cells, pipette 1 mL of the cell suspension, and counted with Vi-cell; • 3) The Ramos cells were diluted with a medium to a density of 5×10^6/mL, and the diluted cells were added to a 96-well cell culture plate (100 μL/well) using a lance. Placed the cell plates in a 37° C., 5% CO2 incubator for overnight. • b) Cell starvation: • 1) After cultured the inoculation cells for overnight, centrifuged at 1000 rpm for 5 minutes on the next day, aspirated the original medium by a lance, added serum-free experimental medium, placed the cell plates in a 37° C., 5% CO2 incubator, and starved for overnight. • c) Compound preparation and dosing: • 1) The compound was diluted with dimethyl sulfoxide to give an initial concentration of 5 mM. A triple gradient dilution was done with compound V dilution plate to make 10 concentration points. • 2) Took another new compound V-well dilution plate, added 198 ul of serum-free experimental medium to each well, and then added 2 ul of the diluted compound above to each well, and mixed with a lance. […]

[1] = Ramos cell line, compound 1 hour, goat anti-human IgM 10 ug/ml for 10 minutes, Phospho-AKT 1/2/3 (ser473) ELISA, read-out: Inhibit AKT phosphorylation IC50
[2] = read-out: Inhibit AKT phosphorylation IC50 (nM)

SMILES	IC50 (SYK kinase) [nM]	IC50 (AKT phosphorylation; [1]) [nM]	IC50 (AKT phosphorylation; [2]) [nM]
Cn1c(=O)c(Nc2ccc(N3CCOCC3)c(F)c2)nc2ccc(-c3cn[nH]c3)cc21 [Example 48, 3-((3-Fluoro-4-morpholinephenyl)amino)-1-methyl-7-(1H-pyrazol-4-yl)quinoxaline-2(1H)-one]	10.5	114	–
CN1CCN(c2ccc(Nc3nc4ccc(-c5cn[nH]c5)cc4n(C)c3=O)cc2)CC1 [Example 33, 1-Methyl-3((4-(4-methylpiperazin-1-yl)phenyl)amino)-7-(1H-pyrazol-4-yl) quinoxaline-2(1H)-one]	3.2	–	226
Cn1c(=O)c(Nc2ccc(N3CCCC(C(=O)O)C3)cc2)nc2ccc(-c3cn[nH]c3)cc21 (stereo not drawn) [Example 55, 1-(4-((4-methyl-3-oxo-6-(1H-pyrazol-4-yl)-3,4-dihydroquinoxalin-2-yl)amino)phenyl)piperidine-3-carboxylic acid]	4.1	–	116
Cn1c(=O)c(Nc2ccc(N3CCOCC3)cc2)nc2cc(F)c(-c3cn[nH]c3)cc21 [Example 45, 6-Fluoro-1-methyl-3-((4-morpholinephenyl)amino)-7-(1H-pyrazol-4-yl)quinoxaline-2(1H)-one]	20.2	83.3	–
Cn1c(=O)c(Nc2ccc(N3CCOCC3)cn2)cc2cc(-c3cc[nH]n3)c(F)cc21 [Example 6, 7-Fluoro-1-methyl-3-((5-morpholinepyridin-2-yl)amino)-6-(1H-pyrazol-3-yl)quinoline-2(1H)-one]	21.1	–	446
Cn1c(=O)c(Nc2ccccn2)cc2c(F)c(-c3cc[nH]n3)ccc21 [Example 15, 5-Fluoro-1-methyl-6-(1H-pyrazol-3-yl)-3-(pyridin-2-amine)-quinoline-2(1H)-one]	101	425	–

More lines, main results first:

IC50 (SYK kinase) [nM]	IC50 (AKT phosphorylation; [1]) [nM]	SMILES	IC50 (AKT phosphorylation; [2]) [nM]
24.9	255	Cn1c(=O)c(Nc2ccc(N3CCCC(C)(C(=O)O)C3)cn2)cc2c(F)c(-c3cc[nH]n3)ccc21 (stereo not drawn) [Example 17, 1-(6-((5-Fluoro-1-methyl-2-oxo-6-(1H-pyrazol-3-yl)-1,2-dihydroquinolin-3-yl)amine)pyridine-3-yl)-3-pipecoline-3-carboxylic acid]	–
15	230	Cn1c(=O)c(Nc2ccc(N3CCOCC3)cn2)cc2c(F)c(-c3cc[nH]n3)ccc21 [Example 11, 5-Fluoro-1-methyl-3-((5-morpholinopyridin-2-yl)amino)-6-(1H-pyrazol-3-yl)quinoline-2(1H)-one]	–
12.7	63	Cn1c(=O)c(Nc2ccc(C(C)(C)O)cn2)cc2c(F)c(-c3cc[nH]n3)ccc21 [Example 20]	–
